This is an account of results in PMC12067128, “Macrocyclization: Enhancing Drug-like Properties of Discoidin Domain Receptor Kinase Inhibitors” (ACS Medicinal Chemistry Letters, 2025).

A short description of the data set: pH-metric determination of pKa values (SiriusT3). The class given is physicochemical. Conditions: methanol/ISA water cosolvent mixtures (0.15 M KCl), MeOH:ISA water cosolvent, extrapolated to 0% cosolvent, 25 °C, n=4. The procedure: pH-metric determination of pKa values
Experimental pKa was determined by pH-metric approaches using SiriusT3 (PIon Inc. Ltd, Forrest Row, UK) instrument which integrates a dispenser module equipped with precision dispensers, 0.5 mL syringes, a multi-tip capillary bundle, a titrator module, a microstirrer with variable speed, a combined double junction Ag/AgCl pH and reference electrode and a fibre optics dip probe connected to a deuterium UV pulsed light source and a photodiode array (PDA) detector, acquiring spectra in the 200-700 nm wavelength range. SiriusT3 Control software v 1.1.3.0 was employed for acquisition, while Sirius T3 Refine software v. 1.1.3.0 was used for data analysis. The glass microelectrode was standardized by means of a strong acid-strong base titration (0.5N HCl vs. 0.5N KOH) in the pH range 2.0-12.0 at fixed temperature (25±0.5°C) and I = 0.15 M for KCl addition, in N2 atmosphere. […]
The original method was described in a previous paper.e Briefly, a HPLC Thermo Fisher Scientific Dionex Ultimate 3000 instrument equipped with a Low-Pressure Mixing Gradient Pump LPG-3400 SD, ACC-3000 autosampler with termostatable column compartment, a DAD-3000 RS Detector and Chromeleon Data System Version 7.2.10 was used. […] The dead time, t0, was determined by monitoring the baseline disturbance. […]

Read-outs that look alike come from different tables or passages of the source.

Regarding `Cn1cc2c3nc(ncc31)Nc1cnn(c1)CCCNCCOc1ccc-2cc1` [Compound 5a], the pKa by setting is: (read-out: pKa (basic), amino group (propan-1-amine)) 8.2; (read-out: pKa (basic), pyrrolo-pyrimidine moiety) 4.35.

What is called pKa is the negative logarithm of the acid dissociation constant.
